Consider two molecules from patent US9370554B2, “Method for treating breast cancer with prolactin receptor agonists” (Orbis Health Solutions LLC, priority 2010, dated 2016).

For experiment [1], the system named is MCF-7 human breast cancer cells. Kind of experiment: Tumorsphere formation assay, MCF-7 (Example 1). It counts as cell-based. The settings on record: 11 days of treatment, hPRL 0.5 μg/ml, Dox 25 ng/ml, tumorspheres greater than 100 μm, FIG. 1. How it is done: Tumor sphere formation assay and aldehyde dehydrogenase (ALDH) activity measured by flow cytometry were used to measure the functional response of the CSCs after 11 days of co-treatment with human prolactin (hPRL) and doxorubicin (Dox). MCF-7 and MMTV-neu cells were cultured by standard methods known in the art. Briefly, unsorted MCF-7 cells were plated in ultra-low attachment plate (Corning Inc, Corning, N.Y.) at a density of 5000 cells/ml in serum-free Dulbecco's Modified Eagle Medium—F12 (DMEM-F12) supplemented with 0.4% bovine serum albumin (BSA), 10 ng/mL of basic fibroblast growth factor (bFGF), 20 ng/ml of epidermal growth factor (EGF), 5 μg/ml of insulin (all from Sigma-Aldrich Co., St. Louis, Mo.). Tumorspheres were allowed to form in 37° C. with 5% CO2 for 10 days. Culture medium were replaced two times in the course of treatment. Similar culturing method was applied to MMTV-neu cells in the exception of MMTV-neu cells were plated at a density of 200,000 cells/ml. Cells were treated with 0.5 μg/ml of hPRL, 25 ng/ml of doxorubicin or a combination of 0.5 μg/ml hRPL and 25 ng/ml doxorubicin. After 11 days of treatment, the cells were analyzed for tumorsphere formation and ALDH activity levels. Tumorsphere formation was determined by spheres formed in the culture medium. Spheres number were counted manually under four random fields of the 24-well at 40× magnification.

For experiment [2] the test system is unchanged. In words: ALDH activity by flow cytometry (ALDEFLUOR), MCF-7 tumorspheres (Example 1). The class given is cell-based. The settings on record: 11 days, hPRL 0.5 μg/ml, Dox 25 ng/ml, FIG. 2. How it is done: (§1) MCF-7 human breast cancer cells and primary mouse breast cancer cells isolated from MMTV-neu transgenic mice were used in this study. Tumor sphere formation assay and aldehyde dehydrogenase (ALDH) activity measured by flow cytometry were used to measure the functional response of the CSCs after 11 days of co-treatment with human prolactin (hPRL) and doxorubicin (Dox).
(§2) Cells were treated with 0.5 μg/ml of hPRL, 25 ng/ml of doxorubicin or a combination of 0.5 μg/ml hRPL and 25 ng/ml doxorubicin. After 11 days of treatment, the cells were analyzed for tumorsphere formation and ALDH activity levels.
Accordingly, to determine the number of CSCs in a tumor sample, ALDH activity levels were determined by the ALDEFLUOR kit (StemCell Technologies, Vancouver, BC, Canada). Briefly, tumorspheres were dissociated by trypsin (Invitrogen, Carlsbad, Calif.) at 37° C. for 5 minutes and resuspended in ALDEFLUOR assay buffer containing ALDH substrate (BODIPY-aminoacetaldehyde, 1 μM per 1×10^6 cells). An aliquot of the cells were treated with 7.5 μM of diethylaminobenzaldehyde (DEAB), an inhibitor of ALDH, as the negative control. Samples were incubated in 37° C. with 5% CO2 for 45 minutes and analyzed by FACSCalibur (Becton Dickinson Co., Franklin Lakes, N.J.). The ALDH-positive gate was established using the negative control treated with DEAB.

A further experiment has as its system McNeuA implanted mice. In words: In vivo combination therapy on McNeuA implanted FVB mice (Example 2). Also noted: species or system mouse. Particulars: four-week regimen, weekly Dox with or without daily hPRL injection; for Time to relapse: X, Y are placeholders. An excerpt: Finally, the efficacy of the treatment is examined in vivo by implanting McNeuA cell into FVB mice. Two weeks after tumor cell inoculation, a four-week treatment regimen is applied (weekly Dox with or without daily hPRL injection). Tumor growth and the time to relapse is monitored and compared among groups.

The test system of experiment [3] is MCF-7, SKBR3 and McNeuA breast cancer cell lines. In words: Tumorsphere evaluation, all cell lines tested (Example 2). It counts as cell-based, human and mouse. The settings on record: 7 and 14 days of treatment. The text has this: (§3) Three breast cancer cell lines are used in this assay: two human breast cancer cell lines, MCF-7 (ER^high, HER2^low) and SKBR3 (ER^low, HER2^high), and one mouse breast cancer cell line that was established from HER2/neu transgenic mice (McNeuA). After establishing the dose response curves, all three cell lines will be used for two in vitro studies. The cells will be treated with a standard chemotherapeutic drug, doxorubicin (Dox) alone (Max or IC50) or in combination with hPRL (Max or IC50).
First, the functional response of CSCs is measured by standard colony formation and tumorsphere formation assays after 7- and 14 days of treatment using methods described above in Example 2.

Experiment [4] has the same test system. Kind of experiment: ALDH testing, cell lines of Example 2. The class given is cell-based, human and mouse. The settings on record: Example 2 cell lines; 12, 24 and 48 hours of treatment.
Source text: as §3
Next, the CSC population is measured by two sets of the stem cell markers, aldehyde dehydrogenase (ALDH) and CD44^high/CD24^low after a 12-, 24- and 48 hours of treatment using flow cytometry methods as described in Example 2.

For experiment [5], the system named is primary mouse breast cancer cells isolated from MMTV-neu transgenic mice. Kind of experiment: Tumorsphere formation assay, MMTV-neu primary cells (Example 1). It counts as cell-based. The settings on record: 11 days, hPRL 0.5 μg/ml, ±0.34, p<0.001, data not shown. How it is done: as §1
MCF-7 and MMTV-neu cells were cultured by standard methods known in the art. Briefly, unsorted MCF-7 cells were plated in ultra-low attachment plate (Corning Inc, Corning, N.Y.) at a density of 5000 cells/ml in serum-free Dulbecco's Modified Eagle Medium—F12 (DMEM-F12) supplemented with 0.4% bovine serum albumin (BSA), 10 ng/mL of basic fibroblast growth factor (bFGF), 20 ng/ml of epidermal growth factor (EGF), 5 μg/ml of insulin (all from Sigma-Aldrich Co., St. Louis, Mo.). Tumorspheres were allowed to form in 37° C. with 5% CO2 for 10 days. Culture medium were replaced two times in the course of treatment. […]
as §2
Tumorsphere formation was determined by spheres formed in the culture medium. Spheres number were counted manually under four random fields of the 24-well at 40× magnification.

As for `COc1cccc2c1C(=O)c1c(O)c3c(c(O)c1C2=O)C[C@@](O)(C(=O)CO)C[C@@H]3O[C@H]1C[C@H](N)[C@H](O)[C@H](C)O1` [Dox, doxorubicin], the “number of tumorspheres formed / tumorspheres formation” value in experiment [1] was “negligible effect”. Also, in experiment [2], the “number of ALDH+ cells (ALDH positive cell population)” value is “no significant change” and the “number of ALDH− cells” value is on record as “decreased”. For the same molecule, in the experiment on McNeuA implanted mice, the Tumor size result is given as “decrease” and the Time to relapse entry is “X days after last treatment”. The “tumorsphere formation (number and size of tumorspheres)” value in experiment [3] is given as “negligible affect”. Besides, in experiment [4], the “number of ALDH-negative cells” value is recorded as “reduced” and the “number of ALDH-positive cells” value was “unaffected”.

B1: human prolactin (protein, UniProt P01236 29-227, looked up)
Prolactin: LPICPGGAARCQVTLRDLFDRAVVLSHYIHNLSSEMFSEFDKRYTHGRGFITKAINSCHTSSLATPEDKEQAQQMNQKDFLSLIVSILRSWNEPLYHLVTEVRGMQEAPEAILSKAVEIEEQTKRLLEGMELIVSQVHPETKENEIYPVWSGLPSLQMADEESRLSAYYNLLHCLRRDSHKIDNYLKLLKCRIIHNNNC
Turning to B1, the “number of tumorspheres formed / tumorspheres formation” value in experiment [1] is listed as “slightly increased”. The “increase of tumorspheres formation” value in experiment [5] was determined as 2.3 fold. For the same molecule, in the experiment on McNeuA implanted mice, the Tumor size result was “increase comparable to “no” and the Time to relapse entry was “no remission”. In addition, the “tumorsphere formation (number and size of tumorspheres)” value in experiment [3] is on record as “negligible affect”. Besides, in experiment [4], the “number of ALDH-negative cells” value is “negligible affect” and the “number of ALDH-positive cells” value is listed as “negligible affect”.
